This note sets out measurements from patent US20260042764A1, “COMPOSITIONS AND METHODS FOR INHIBITION OF KRAS” (TheRas, Inc., priority 2022, published 2026).

Structures are written as SMILES. Where only a bound is given, the exact number is not on record here.

Experiment [1] has as its system HPAC cells (KRAS G12D). The experiment in a line: 3D Cell viability assay in HPAC cells (Biological Example 6). Format: cell-based. To be noted: Homo sapiens, HPAC, 72 h, HPAC (KRAS G12D) spheroids. The method, then: (§1) Biological Example 6: 3D Cell viability assay in AsPC-1, SW1900, HPAC, Capan-2, RKN, H358, HCT116, KP-2, H1573, A549, MKN1, and HT1080 cells
(§2) The inhibition of cellular viability as a result of test compound treatment in a spheroid assay was measured using the CellTiter-Glow 3D Cell Viability Assay (Promega).
(§3) On Day 1, 1000 cells per well were seeded in 150 μL of complete growth media supplemented with 10% fetal bovine serum (FBS) and incubated at 37° C., in the presence of 5% CO2 in 96-well ultra-low attachment microplates (Corning) for 48 hours undisturbed to allow spheroids to form.
(§4) Following spheroid formation, cells were treated with compounds diluted in DMSO at 0.25% final DMSO concentration. Compounds were dosed in a 9-point concentration curve with three-fold dilution between concentrations. Cells were incubated in the presence of compound for 72 hours at 37° C., in the presence of 5% CO2.
(§5) Following this incubation period, the kit-provided CTG reagent was allowed to equilibrate for 30 minutes at room temperature, 150 μL of equilibrated CTG reagent was added to each well, and the plate was sealed before shaking at 250 rpm for 10 minutes at room temperature to lyse the cells, 150 μL of lysate per well was transferred to a 96-well plate and luminescence was read on a CLARIOstar plate reader.
(§6) Data was imported into the Prism software package (Graphpad) and EC50 values were calculated using the log (inhibitor) vs, response—variable slope (Four parameters) model.

Experiment [2] concerns SW1900 cells (KRAS G12D). The experiment in a line: 3D Cell viability assay in SW1900 cells (Biological Example 6). Format: cell-based. The following applies: Homo sapiens; SW1990 (text: SW1900, KRAS G12D) spheroids, 72 hours. Here is the method: as §1, §2, §3, §4, §5, §6
Experiment [3] deals with Capan-2 cells (KRAS G12V). Kind of experiment: Cell-based pERK HTRF assay in Capan-2 cells (Biological Example 5). The following applies: Homo sapiens, Capan-2, Capan-2 (KRAS G12V) cells. Here is the method:
(§7) Biological Example 5: Cell-based PERK HTRF assay in AsPC-1, SW1900, HPAC, Capan-2, RKN, H358, HCT116, KP-2, H1573, A549, MKN1, and HT1080 cells
(§8) The inhibition of ERK phosphorylation, as measured using the HTRF Advanced Phospho-ERK 1/2 (Thr202/Tyr204) Detection Assay kit (Perkin Elmer), was used to determine the effectiveness of test compounds in disrupting KRAS-driven protein/effector signaling in cells.
(§9) On day 1, cells were seeded into 96-well plates at 2.5×10^4 cells/well in 100 μL of complete growth media supplemented with 10% fetal bovine serum (FBS) and incubated at 37° C., in the presence of 5% CO2.
(§10) On day 2, cells were treated with compounds diluted in DMSO at 0.25% final DMSO concentration. Compounds were dosed in a 9-point concentration curve with three-fold dilution between concentrations. Cells were incubated in the presence of compound for two hours at 37° C. Following this treatment period, cells were harvested by aspirating the media, adding 40 μL of kit-supplied 1x lysis buffer per well, and shaking for 30 minutes at 250 rpm at room temperature.
(§11) Following cell lysis, samples were homogenized by pipetting up and down twenty times and 16 μL of cell lysate per well was transferred from the 96-well cell culture plate to two wells of a 384-well detection plate. A complete detection buffer was prepared by diluting D2 and Eu Cryptate antibodies 1:20 in kit-provided detection solution, 4 μL of complete detection buffer was then added to each well with lysate. Plates were incubated with gentle rocking for 24 hours at 4° C.
(§12) Following this incubation period, plates were centrifuged at 500×g for one minute and analyzed on a CLARIOstar plate reader. Data was imported into Microsoft Excel and the signal from the 665 nm channel was divided by the signal from the 620 nm channel. % pERK was calculated as: […]
(§13) Data was imported to the Prism software package (Graphpad) and EC50 values were calculated using the log (inhibitor) vs, response—variable slopc (Four parameters) model.
For orientation: Time-resolved FRET reads energy transfer from a long-lived donor to a nearby acceptor.

Experiment [4] relates to HPAC cells (KRAS G12D). The experiment in a line: Cell-based pERK HTRF assay in HPAC cells (Biological Example 5). To be noted: Homo sapiens, HPAC. Here is the method:
as §7, §8, §9, §10, §11, §12, §13

Experiment [5] concerns SW1900 cells (KRAS G12D). Kind of experiment: Cell-based pERK HTRF assay in SW1900 cells (Biological Example 5). To be noted: Homo sapiens, SW1990, SW1990 cells (text: SW1900, KRAS G12D). Here is the method: as §7, §8, §9, §10, §11, §12, §13
For the next experiment, the system named is AsPC-1 cells (KRAS G12D). Kind of experiment: 3D Cell viability assay in AsPC-1 cells (Biological Example 6). Format: cell-based. To be noted: Homo sapiens, ASPC1; AsPC-1 (KRAS G12D) spheroids, 72 hours. The method, then:
as §1, §2, §3, §4, §5, §6

In experiment [6] the test system is Capan-2 cells (KRAS G12V). The experiment in a line: 3D Cell viability assay in Capan-2 cells (Biological Example 6). The following applies: Homo sapiens; Capan-2 (KRAS G12V) spheroids, 72 hours. The experiment is classed as cell-based. The method, then:
as §1, §2, §3, §4, §5, §6

The test system of experiment [7] is H358 cells (KRAS G12C). Kind of experiment: Cell-based pERK HTRF assay in H358 cells (Biological Example 5). The following applies: Homo sapiens, NCI-H358, H358 (KRAS G12C) cells. The method, then:
as §7, §8, §9, §10, §11, §12, §13

In experiment [8] the test system is MKN1 cells (KRAS amplification). The experiment in a line: 3D Cell viability assay in MKN1 cells (Biological Example 6). The experiment is classed as cell-based. The following applies: Homo sapiens, MKN-1; MKN (MKN1, KRAS amplification) spheroids, 72 hours. The method, then: as §1, §2, §3, §4, §5, §6
Experiment [9] deals with H358 cells (KRAS G12C). The experiment in a line: 3D Cell viability assay in H358 cells (Biological Example 6). The experiment is classed as cell-based. To be noted: Homo sapiens, NCI-H358; H358 (KRAS G12C) spheroids, 72 hours. Here is the method: as §1, §2, §3, §4, §5, §6

In general, IC50 refers to the concentration at which inhibition is half-maximal. For `CCN(c1nc(OC[C@@]23CCCN2C[C@H](F)C3)nc2c(F)c(-c3ccc(F)c4sc(N)c(C#N)c34)c(C(F)(F)F)cc12)[C@H]1CCN(C(=O)C2CC2)[C@@H]1C` (atropisomer, axis not shown) [Compound 579], the IC50 with HPAC cells (KRAS G12D) [1] was 100 to 1000 nM; with SW1900 cells (KRAS G12D) [2], at most 100 nM; in experiment [3], at most 100 nM; in the experiment with HPAC cells (KRAS G12D) [4], over 1000 nM; in the experiment with SW1900 cells (KRAS G12D) [5], at most 100 nM; with AsPC-1 cells (KRAS G12D) it was at most 100 nM. In addition, the concentration for half-maximal inhibition (IC50) (in experiment [6]; with H358 cells (KRAS G12C) [7]; in experiment [8]; in the experiment on H358 cells (KRAS G12C) [9]) was at most 100 nM each time.
Regarding `CCN(c1nc(OC[C@@]23CCCN2C[C@H](F)C3)nc2c(F)c(-c3ccc(F)c4sc(N)c(C#N)c34)c(C(F)(F)F)cc12)[C@H]1CCN(C(=O)c2ncco2)C1` (atropisomer, axis not shown) [Compound 584], the IC50 is at most 100 nM with HPAC cells (KRAS G12D) [1]; at most 100 nM with SW1900 cells (KRAS G12D) [2]; at most 100 nM in experiment [3]; 100 to 1000 nM with HPAC cells (KRAS G12D) [4]; at most 100 nM in the experiment with SW1900 cells (KRAS G12D) [5]; at most 100 nM in the experiment on AsPC-1 cells (KRAS G12D). In addition, the IC50 (in [6]; with H358 cells (KRAS G12C) [7]; in experiment [8]; with H358 cells (KRAS G12C) [9]) was at most 100 nM each time.
For `CCN(c1nc(OC[C@@]23CCCN2C[C@H](F)C3)nc2c(F)c(-c3ccc(F)c4sc(N)c(C#N)c34)c(C(F)(F)F)cc12)[C@H]1C[C@@H](C)N(C(=O)C2COC2)C1` (atropisomer, axis not shown) [Compound 586], the IC50 in the experiment with HPAC cells (KRAS G12D) [1] is at most 100 nM; in the experiment with SW1900 cells (KRAS G12D) [2] it was at most 100 nM; in experiment [3], at most 100 nM; in the experiment on HPAC cells (KRAS G12D) [4], 100 to 1000 nM; with SW1900 cells (KRAS G12D) [5], at most 100 nM; in the experiment on AsPC-1 cells (KRAS G12D), at most 100 nM. Moreover, the IC50 (in experiment [6]; in the experiment on H358 cells (KRAS G12C) [7]; in experiment [8]; with H358 cells (KRAS G12C) [9]) was at most 100 nM each time.
Consider `CCN(c1nc(OC[C@@]23CCCN2C[C@H](F)C3)nc2c(F)c(-c3ccc(F)c4sc(N)c(C#N)c34)c(C(F)(F)F)cc12)[C@H]1CCN(C(=O)N2CC(F)C2)C1` (atropisomer, axis not shown) [Compound 606], for which the IC50 was 100 to 1000 nM with HPAC cells (KRAS G12D) [1]; at most 100 nM in the experiment with SW1900 cells (KRAS G12D) [2]; at most 100 nM in [3]; at most 100 nM in the experiment with HPAC cells (KRAS G12D) [4]; at most 100 nM in the experiment with SW1900 cells (KRAS G12D) [5]; at most 100 nM in the experiment with AsPC-1 cells (KRAS G12D). Also, the IC50 (in experiment [6]; in the experiment on H358 cells (KRAS G12C) [7]; in [8]; in the experiment on H358 cells (KRAS G12C) [9]) was at most 100 nM in each case.
With `C[C@H]1Cn2nc(C(=O)N(C)C)cc2CN1c1nc(OC[C@@]23CCCN2C[C@H](F)C3)nc2c(F)c(-c3ccc(F)c4sc(N)c(C#N)c34)c(C(F)(F)F)cc12` (atropisomer, axis not shown) [Compound 610], the half-inhibitory concentration (IC50) with HPAC cells (KRAS G12D) [1] is 100 to 1000 nM; in the experiment with SW1900 cells (KRAS G12D) [2], at most 100 nM; in experiment [3], at most 100 nM; in the experiment on HPAC cells (KRAS G12D) [4] it was at most 100 nM; in the experiment with SW1900 cells (KRAS G12D) [5], at most 100 nM; in the experiment on AsPC-1 cells (KRAS G12D), at most 100 nM. The IC50 (in [6]; in the experiment with H358 cells (KRAS G12C) [7]; in experiment [8]; with H358 cells (KRAS G12C) [9]) was at most 100 nM throughout.
